Among the data in US11472803B2, “7-substituted 1-aryl-naphthyridine-3-carboxylic acid amides and use thereof” (Bayer Aktiengesellschaft, priority 2016, dated 2022) are EC50, Emax and Efficiency values, retold here.

Usually EC50 stands for the concentration giving half of the maximal effect. High values mean weaker potency, low ones greater potency. Usually Emax stands for the size of the effect at its maximum, as opposed to the concentration needed.

The experiment addresses T1, human M2 receptor (Homo sapiens, UniProt P08172).
T1 construct: expressed in transfected cells; host or cells: CHO-DUKX (CHO-DUKX-M2-GIRK)
T1 sequence (P08172 1-466): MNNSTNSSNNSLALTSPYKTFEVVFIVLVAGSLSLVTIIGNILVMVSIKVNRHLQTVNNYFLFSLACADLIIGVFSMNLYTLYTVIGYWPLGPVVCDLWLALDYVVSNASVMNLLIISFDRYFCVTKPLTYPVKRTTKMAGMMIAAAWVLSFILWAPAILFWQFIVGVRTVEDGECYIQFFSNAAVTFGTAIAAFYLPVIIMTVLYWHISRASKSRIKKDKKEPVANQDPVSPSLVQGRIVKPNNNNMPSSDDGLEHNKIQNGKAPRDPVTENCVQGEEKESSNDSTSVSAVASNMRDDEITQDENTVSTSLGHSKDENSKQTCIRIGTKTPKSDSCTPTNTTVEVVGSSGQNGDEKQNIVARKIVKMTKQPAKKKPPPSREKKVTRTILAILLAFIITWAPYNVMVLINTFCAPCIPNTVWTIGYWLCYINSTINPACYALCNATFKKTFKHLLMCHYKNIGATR
In words: Functional M2-GIRK1/4 activation test: allosteric potency (EC50) and efficiency at EC20 acetylcholine. It counts as cell-based. The note with it: CHO-DUKX-M2-GIRK cells; for EC50: voltage-sensitive dye, acetylcholine at EC20, in some cases mean of two or more determinations; for Emax / Efficiency: boosting of the acetylcholine effect at EC20 acetylcholine concentration. An outline of the steps: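 CHO-DUKX cells stably expressing human M2 and GIRK1/4; membrane potential tracked with voltage-sensitive dye at room temperature. Compound added 50 s before acetylcholine at its EC20, then hyperpolarization read 60 s. EC50 (allosteric potency) and efficiency (boost of EC20 ACh effect) from 4-parameter Hill fit.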

`CC(C)C(NC(=O)c1cn(-c2c(F)cc(F)cc2Cl)c2nc(N3C[C@@H](O)[C@H](O)C3)c(F)cc2c1=O)C(F)(F)F` (stereo partly drawn) [Example 136, 1-(2-Chloro-4,6-difluorophenyl)-7-[(3R,4R)-3,4-dihydroxypyrrolidin-1-yl]-6-fluoro-4-oxo-N-[1,1,1-trifluoro-3-methylbutan-2-yl]-1,4-dihydro-1,8-naphthyridine-3-carboxamide] yielded an EC50 of 2.8 nM and an Emax of 84%.
On to `O=C(NC(c1ccccc1Cl)C(F)(F)F)c1cn(-c2c(F)cc(F)cc2F)c2nc(N3C[C@@H](O)[C@H](O)C3)c(F)cc2c1=O` (mixture of isomers) [Example 131, N-[1-(2-Chlorophenyl)-2,2,2-trifluoroethyl]-7-[(3R,4R)-3,4-dihydroxypyrrolidin-1-yl]-6-fluoro-4-oxo-1-(2,4,6-trifluorophenyl)-1,4-dihydro-1,8-naphthyridine-3-carboxamide], for which a half-maximal response (EC50) required 4.6 nM and the Emax amounted to 100%.
`C[C@H](NC(=O)c1cn(-c2c(F)cc(F)cc2F)c2nc(N3C[C@@H](O)[C@H](O)C3)c(F)cc2c1=O)c1ccccc1` [Example 167, 7-[(3R,4R)-3,4-Dihydroxypyrrolidin-1-yl]-6-fluoro-4-oxo-N-[(1S)-1-phenylethyl]-1-(2,4,6-tri-fluorophenyl)-1,4-dihydro-1,8-naphthyridine-3-carboxamide]: the midpoint of the response, the EC50, lay at 7.4 nM and the Emax amounted to 95%.
Regarding `O=C(NCC(F)(F)F)c1cn(-c2c(F)cc(F)cc2Cl)c2nc(N3C[C@@H](O)[C@H](O)C3)c(F)cc2c1=O` (single isomer, unassigned) [Example 223], it took 26 nM to reach a half-maximal effect (EC50) and the Efficiency was determined as 86%.
Consider `O=C(NC(C(F)(F)F)C(F)(F)F)c1cn(-c2c(F)cc(F)cc2F)c2nc(N3CC4(COC4)C3)c(F)cc2c1=O` [Example 196, 6-Fluoro-N-(1,1,1,3,3,3-hexafluoropropan-2-yl)-7-(2-oxa-6-azaspiro[3.3]hept-6-yl)-4-oxo-1-(2,4,6-trifluorophenyl)-1,4-dihydro-1,8-naphthyridine-3-carboxamide], for which the EC50 was found to be 63 nM and the Emax amounted to 100%.
`CC(NC(=O)c1cn(-c2c(F)cc(F)cc2F)c2nc(N3CCNCC(O)C3)c(F)cc2c1=O)C(F)(F)C(F)(F)F` (centres unmarked) [Example 200, 6-Fluoro-7-[6-hydroxy-1,4-diazepan-1-yl]-4-oxo-N-[3,3,4,4,4-pentafluorobutan-2-yl]-1-(2,4,6-trifluorophenyl)-1,4-dihydro-1,8-naphthyridine-3-carboxamide]: the EC50 is 120 nM and the Emax was determined as 73%.
With `CC(NC(=O)c1cn(-c2c(F)cc(F)cc2F)c2nc(N3CC(CO)(CO)C3)c(F)cc2c1=O)C(F)(F)C(F)(F)F` (racemic) [Example 168, 7-[3,3-Bis(hydroxymethyl)azetidin-1-yl]-6-fluoro-4-oxo-N-[3,3,4,4,4-pentafluorobutan-2-yl]-1-(2,4,6-trifluorophenyl)-1,4-dihydro-1,8-naphthyridine-3-carboxamide], the EC50 was determined as 4 nM and the Emax is 86%.
For `C[C@@H](NC(=O)c1cn(-c2c(F)cc(F)cc2F)c2nc(N3C[C@@H](O)[C@H](O)C3)c(F)cc2c1=O)C(F)(F)F` [Example 219, 7-[(3R,4R)-3,4-dihydroxypyrrolidin-1-yl]-6-fluoro-4-oxo-1-(2,4,6-trifluorophenyl)-N-[(2R)-1,1,1-trifluoropropan-2-yl]-1,4-dihydro-1,8-naphthyridine-3-carboxamide], in that order: 16.5 nM and 91%.
Take `C[C@H]1CN(c2nc3c(cc2F)c(=O)c(C(=O)N[C@@H](C2CC2)C(F)(F)F)cn3-c2c(F)cc(F)cc2F)CCN1` [Example 82, N-[(1S)-1-Cyclopropyl-2,2,2-trifluoroethyl]-6-fluoro-7-[(3S)-3-methylpiperazin-1-yl]-4-oxo-1-(2,4,6-trifluorophenyl)-1,4-dihydro-1,8-naphthyridine-3-carboxamide]: a half-maximal effect (EC50) was put at 140 nM and the Emax was determined as 65%.
`CCC(C)(C)NC(=O)c1cn(-c2ncc(F)cc2F)c2nc(N3C[C@@H](O)[C@H](O)C3)c(F)cc2c1=O` [Example 75, 1-(3,5-Difluoropyridin-2-yl)-7-[(3R,4R)-3,4-dihydroxypyrrolidin-1-yl]-6-fluoro-N-(2-methyl-butan-2-yl)-4-oxo-1,4-dihydro-1,8-naphthyridine-3-carboxamide] yielded an EC50 of 87 nM and an Emax of 100%.
Take `CCC(COC(F)(F)F)NC(=O)c1cn(-c2c(F)cc(F)cc2F)c2nc(N3C[C@@H](O)[C@@H](O)C3)c(F)cc2c1=O` (mixture of isomers) [Example 95, 7-[(3R,4S)-3,4-Dihydroxypyrrolidin-1-yl]-6-fluoro-4-oxo-N-[1-(trifluoromethoxy)butan-2-yl]-1-(2,4,6-trifluorophenyl)-1,4-dihydro-1,8-naphthyridine-3-carboxamide]: the EC50 is 15.5 nM and the Emax amounted to 100%.
Regarding `CCC(COC(F)(F)F)NC(=O)c1cn(-c2c(F)cc(F)cc2F)c2nc(N3CC[C@H](O)C3)c(F)cc2c1=O` (single isomer, unassigned) [Example 110], the EC50 was 19 nM and the Emax was 100%.
Compound `CCC(COC(F)(F)F)NC(=O)c1cn(-c2c(F)cc(F)cc2F)c2nc(N3C[C@@H](O)[C@@H](O)C3)c(F)cc2c1=O` (single isomer, unassigned) [Example 96] yielded an EC50 of 16 nM and an Emax of 96%.
Taken in the same sequence, the figures for `CC(NC(=O)c1cn(-c2c(F)cc(F)cc2F)c2nc(N3CCOCC3)c(F)cc2c1=O)C(F)(F)C(F)(F)F` (racemic) [Example 146, 6-Fluoro-7-(morpholin-4-yl)-4-oxo-N-[3,3,4,4,4-pentafluorobutan-2-yl]-1-(2,4,6-trifluoro-phenyl)-1,4-dihydro-1,8-naphthyridine-3-carboxamide] were 12 nM and 100%.
The compound `CCC(NC(=O)c1cn(-c2c(F)cc(F)cc2F)c2nc(N3C[C@@H](O)[C@@H](O)C3)c(F)cc2c1=O)C(C)C` (stereo partly drawn) [Example 105, 7-[(3R,4S)-3,4-Dihydroxypyrrolidin-1-yl]-6-fluoro-V-[2-methylpentan-3-yl]-6-fluoro-4-oxo-1-(2,4,6-trifluorophenyl)-1,4-dihydro-1,8-naphthyridine-3-carboxamide] came in with an EC50 of 7.5 nM and an Efficiency of 97%.
In turn, `C[C@@H](NC(=O)c1cn(-c2c(F)cc(F)cc2Cl)c2nc(N3C[C@@H](O)[C@H](O)C3)c(F)cc2c1=O)C1CC1` [Example 44, 1-(2-chloro-4,6-difluorophenyl)-N-[(1R)-1-cyclopropylethyl]-7-[(3R,4R)-3,4-dihydroxypyrrolidin-1-yl]-6-fluoro-4-oxo-1,4-dihydro-1,8-naphthyridine-3-carboxamide] returned an EC50 of 12 nM and an Emax of 100%.
For `O=C(Nc1c(Cl)cccc1Cl)c1cn(-c2c(F)cc(F)cc2F)c2nc(N3C[C@@H](O)[C@H](O)C3)c(F)cc2c1=O` [Example 130, N-(2,6-Dichlorophenyl)-7-[(3R,4R)-3,4-dihydroxypyrrolidin-1-yl]-6-fluoro-4-oxo-1-(2,4,6-trifluorophenyl)-1,4-dihydro-1,8-naphthyridine-3-carboxamide], the EC50 amounted to 2.3 nM and the Emax was found to be 96%.
`CC1(O)CN(c2nc3c(cc2F)c(=O)c(C(=O)NC(C2CC2)C2CC2)cn3-c2ncc(F)cc2F)C1` [Example 56, N-(Dicyclopropylmethyl)-1-(3,5-difluoropyridin-2-yl)-6-fluoro-7-(3-hydroxy-3-methylazetidin-1-yl)-4-oxo-1,4-dihydro-1,8-naphthyridine-3-carboxamide] displayed an EC50 of 35 nM and an Emax of 100%.
Taken in the same sequence, the figures for `CC[C@H](NC(=O)c1cn(-c2c(F)cccc2F)c2nc(N(C)CCO)c(F)cc2c1=O)C(F)(F)F` [Example 4, 1-(2,6-Difluorophenyl)-6-fluoro-7-[(2-hydroxyethyl)(methyl)amino]-4-oxo-N-[(2S)-1,1,1-trifluorobutan-2-yl]-1,4-dihydro-1,8-naphthyridine-3-carboxamide] were 38 nM and 89%.
For `CC(C)(CC(F)(F)F)NC(=O)c1cn(-c2c(F)cc(F)cc2F)c2nc(N3CC[C@H](O)C3)c(F)cc2c1=O` [Example 107, 6-Fluoro-7-[(3S)-3-hydroxypyrrolidin-1-yl]-4-oxo-N-(4,4,4-trifluoro-2-methylbutan-2-yl)-1-(2,4,6-trifluorophenyl)-1,4-dihydro-1,8-naphthyridine-3-carboxamide], in that order: 3.55 nM and 92%.
Taken in the same sequence, the figures for `CCC(C)(C)NC(=O)c1cn(-c2c(F)cc(F)cc2F)c2nc(N(C)C)c(F)cc2c1=O` [Example 61, 7-(Dimethylamino)-6-fluoro-N-(2-methylbutan-2-yl)-4-oxo-1-(2,4,6-trifluorophenyl)-1,4-dihydro-1,8-naphthyridine-3-carboxamide] were 2.2 nM and 94%.
With `O=C(NC(C1CC1)C(F)(F)C(F)(F)F)c1cn(-c2c(F)cc(F)cc2F)c2nc(N3C[C@@H](O)[C@H](O)C3)c(F)cc2c1=O` (single isomer, unassigned) [Example 202], the EC50 came to 1 nM and the Efficiency is reported as 100%.
